Laboratory results from patent US4900748A (priority 1988, dated 1990).
Like-named read-outs stand apart in the source and are kept apart here.

Columns and labels:
[1] = biological target: Acetylcholinesterase (Caudate) (Homo sapiens, UniProt P22303); test: biochemical
[2] = biological target: Acetylcholinesterase (RBC) (Homo sapiens, UniProt P22303); test: biochemical
[3] = biological target: Acetylcholinesterase (Eel) (Electrophorus electricus, UniProt O42275); test: biochemical
[4] = biological target: Butyrylcholinesterase (Cortex) (Homo sapiens, UniProt P06276); test: biochemical
[5] = biological target: Butyrylcholinesterase (Plasma) (Homo sapiens, UniProt P06276); test: biochemical
[6] = biological target: Acetylcholinesterase (Cortex) (Homo sapiens, UniProt P22303); test: biochemical
acetylcholinesterase = assay type: biochemical; conditions: for IC50: read-out: IC50, antiacetylcholinesterase (approximate)
[7] = test system: acetyl- and butyryl-cholinesterase; assay type: biochemical
neuromuscular AChR = conditions: cited from earlier work
butyrylcholinesterase = assay type: biochemical
nicotinic AChR = conditions: cited from earlier work
[8] = read-out: IC50 Acetylcholinesterase Cortex
[9] = read-out: IC50 Acetylcholinesterase Caudate
[10] = read-out: IC50 Acetylcholinesterase RBC
[11] = read-out: IC50 Acetylcholinesterase Eel
[12] = read-out: IC50 Butyrylcholinesterase Cortex
[13] = read-out: IC50 Butyrylcholinesterase Plasma

Chain of Acetylcholinesterase (Cortex) (P22303 32-614): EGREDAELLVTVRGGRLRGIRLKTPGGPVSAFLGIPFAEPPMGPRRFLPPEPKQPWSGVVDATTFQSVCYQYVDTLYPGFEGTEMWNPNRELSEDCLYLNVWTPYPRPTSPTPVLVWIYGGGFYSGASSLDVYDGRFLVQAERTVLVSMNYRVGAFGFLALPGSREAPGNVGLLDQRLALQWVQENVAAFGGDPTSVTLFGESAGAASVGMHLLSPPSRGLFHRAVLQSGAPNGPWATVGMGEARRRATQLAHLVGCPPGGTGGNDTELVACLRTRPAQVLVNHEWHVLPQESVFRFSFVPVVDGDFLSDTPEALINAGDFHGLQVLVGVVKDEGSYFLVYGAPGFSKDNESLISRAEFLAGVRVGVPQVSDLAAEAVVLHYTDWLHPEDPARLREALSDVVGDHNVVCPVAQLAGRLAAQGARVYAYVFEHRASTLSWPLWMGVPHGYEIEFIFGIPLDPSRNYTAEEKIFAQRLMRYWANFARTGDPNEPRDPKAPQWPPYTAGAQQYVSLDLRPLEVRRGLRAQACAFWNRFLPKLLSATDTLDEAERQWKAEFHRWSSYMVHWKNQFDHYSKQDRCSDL
Chain of Acetylcholinesterase (Caudate) (P22303 32-614): as above
Chain of Acetylcholinesterase (Eel) (O42275 24-633): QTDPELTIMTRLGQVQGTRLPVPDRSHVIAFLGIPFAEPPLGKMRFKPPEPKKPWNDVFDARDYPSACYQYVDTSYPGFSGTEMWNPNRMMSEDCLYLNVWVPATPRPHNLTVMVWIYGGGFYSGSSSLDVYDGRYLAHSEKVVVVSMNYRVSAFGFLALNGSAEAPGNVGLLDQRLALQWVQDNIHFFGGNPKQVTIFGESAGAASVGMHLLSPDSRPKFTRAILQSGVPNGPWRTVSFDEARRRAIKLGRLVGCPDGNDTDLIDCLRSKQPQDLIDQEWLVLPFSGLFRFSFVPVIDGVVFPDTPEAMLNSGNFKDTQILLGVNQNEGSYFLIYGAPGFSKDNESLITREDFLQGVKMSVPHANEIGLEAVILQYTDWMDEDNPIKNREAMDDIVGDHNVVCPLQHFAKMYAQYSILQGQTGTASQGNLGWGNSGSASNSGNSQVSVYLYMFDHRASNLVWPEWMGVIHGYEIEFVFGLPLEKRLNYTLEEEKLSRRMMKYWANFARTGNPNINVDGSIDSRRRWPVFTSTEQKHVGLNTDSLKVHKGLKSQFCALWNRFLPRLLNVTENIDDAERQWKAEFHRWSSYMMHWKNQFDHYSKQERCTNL
Chain of Acetylcholinesterase (RBC) (P22303-2 with tags, fused parts or gaps limits assumed): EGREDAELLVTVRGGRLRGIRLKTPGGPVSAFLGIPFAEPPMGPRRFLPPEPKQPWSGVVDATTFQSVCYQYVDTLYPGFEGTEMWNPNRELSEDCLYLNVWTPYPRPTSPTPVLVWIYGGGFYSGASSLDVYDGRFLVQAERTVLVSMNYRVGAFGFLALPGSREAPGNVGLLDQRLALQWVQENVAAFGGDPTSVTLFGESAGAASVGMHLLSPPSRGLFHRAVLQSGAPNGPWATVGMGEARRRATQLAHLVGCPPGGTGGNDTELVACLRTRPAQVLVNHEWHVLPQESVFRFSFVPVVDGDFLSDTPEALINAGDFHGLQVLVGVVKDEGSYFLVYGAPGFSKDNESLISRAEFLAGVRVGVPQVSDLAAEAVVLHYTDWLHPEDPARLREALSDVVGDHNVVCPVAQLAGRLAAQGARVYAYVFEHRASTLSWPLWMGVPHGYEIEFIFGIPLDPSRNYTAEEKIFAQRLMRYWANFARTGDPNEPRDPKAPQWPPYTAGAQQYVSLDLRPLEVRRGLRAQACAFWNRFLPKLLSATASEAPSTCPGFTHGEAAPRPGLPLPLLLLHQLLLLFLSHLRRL
Chain of Butyrylcholinesterase (Cortex) (P06276 29-602): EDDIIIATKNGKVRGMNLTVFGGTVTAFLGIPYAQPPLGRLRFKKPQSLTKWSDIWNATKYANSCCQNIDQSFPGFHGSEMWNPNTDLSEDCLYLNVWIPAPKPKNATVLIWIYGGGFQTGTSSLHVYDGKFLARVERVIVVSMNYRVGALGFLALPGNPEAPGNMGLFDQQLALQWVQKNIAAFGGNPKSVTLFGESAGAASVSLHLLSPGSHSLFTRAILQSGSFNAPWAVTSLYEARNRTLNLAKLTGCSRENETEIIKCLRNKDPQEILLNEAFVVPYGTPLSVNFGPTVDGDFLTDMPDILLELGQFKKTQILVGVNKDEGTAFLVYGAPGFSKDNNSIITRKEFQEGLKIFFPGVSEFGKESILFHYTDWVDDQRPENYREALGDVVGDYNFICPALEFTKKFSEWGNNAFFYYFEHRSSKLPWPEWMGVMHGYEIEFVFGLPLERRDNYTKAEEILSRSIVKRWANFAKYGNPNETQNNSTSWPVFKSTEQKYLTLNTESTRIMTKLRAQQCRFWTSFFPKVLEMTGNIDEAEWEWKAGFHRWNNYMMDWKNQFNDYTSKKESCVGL
Chain of Butyrylcholinesterase (Plasma) (P06276 29-602): as above

Compound	IC50 [1]	IC50 [2]	IC50 [3]	IC50 [4]	IC50 [5]	specificity acetyl- versus butyryl-cholinesterase [7]	also measured
CN1CC[C@@]2(C)c3cc(O)ccc3N(C)[C@@H]12 (relative stereo) [(+/-)eseroline, reference compound]	> 10 µM	> 10 µM	> 10 µM	> 10 µM	> 10 µM		
CNC(=O)Oc1ccc2c(c1)C1(C)CC[N+](C)(C)C1N2C (single isomer, unassigned) [YU-117, methosulfate of (-)physostigmine]						more potent against acetylcholinesterase than against butyrylcholinesterase	IC50 [6, 8]: 0.0371 ± 0.0066 µM; IC50 [1, 9]: 0.0283 ± 0.0037 µM; IC50 [2, 10]: 0.0294 ± 0.0052 µM; IC50 [3, 11]: 0.0335 ± 0.0006 µM; antiacetylcholinesterase potency in words (acetylcholinesterase): as potent against acetylcholinesterase as physostigmine itself
CN1CC[C@]2(C)c3cc(O)ccc3N(C)[C@H]12 [(+)eseroline, reference compound]	> 10 µM	> 10 µM	> 10 µM	> 10 µM	> 10 µM		
CNC(=O)Oc1ccc2c(c1)[C@]1(C)CCN(C)[C@@H]1N2C [(-) physo, (-)-physostigmine]							properties at the neuromuscular AChR (neuromuscular AChR): blocking as well as agonist properties
CN1CC[C@@]2(C)c3cc(O)ccc3N(C)[C@@H]12 [(-)eseroline, (-)-eseroline, reference compound]	> 10 µM	> 10 µM	> 10 µM	> 10 µM	> 10 µM		
C=CC[N+](C)(C)c1ccc(CCC(=O)CCc2ccc([N+](C)(C)CC=C)cc2)cc1 [BW284c51, reference compound]			0.0073 µM				
CN1CC[C@@]2(C)c3cc(OC(=O)NCc4ccccc4)ccc3N(C)[C@@H]12 [YU-69-1, eseroline benzylcarbamate]	0.027 ± 0.01 µM	0.026 ± 0.008 µM	0.46 ± 0.08 µM	0.02 ± 0.011 µM	0.0027 ± 0.0016 µM		IC50 [6]: 0.024 ± 0.005 µM
CCCCCCCCNC(=O)Oc1ccc2c(c1)[C@]1(C)CCN(C)[C@@H]1N2C [YU-71, eseroline octylcarbamate]				0.0087 ± 0.0037 µM	0.0036 ± 0.001 µM		
CN1CC[C@@]2(C)c3cc(OC(=O)Nc4ccccc4)ccc3N(C)[C@@H]12 [YU-79, eseroline phenylcarbamate]						relatively specific for acetyl- rather than butyryl-cholinesterase	IC50 [6, 8]: 0.036 ± 0.003 µM; IC50 [1, 9]: 0.021 ± 0.001 µM; IC50 [2, 10]: 0.024 ± 0.006 µM; IC50 [3, 11]: 0.35 ± 0.09 µM; IC50 [4, 12]: 2.5 µM; IC50 [5, 13]: 1.3 µM; IC50 (acetylcholinesterase): ~0.03 µM
CNC(=O)Oc1ccc2c(c1)[C@]1(C)CCN[C@@H]1N2C [YU-96, N--norphysostigmine]						equipotent versus both acetyl- and butyryl-cholinesterase	antiacetylcholinesterase potency in words (acetylcholinesterase): as potent against acetylcholinesterase as physostigmine itself
C=CCN1CC[C@@]2(C)c3cc(OC(=O)NC)ccc3N(C)[C@@H]12 [YU-110, N--allyl physostigmine]				0.0156 ± 0.0069 µM	0.00265 ± 0.00201 µM	equipotent versus both acetyl- and butyryl-cholinesterase	antiacetylcholinesterase potency in words (acetylcholinesterase): as potent against acetylcholinesterase as physostigmine itself
CNC(=O)Oc1ccc2c(c1)[C@]1(C)CCN(CCc3ccccc3)[C@@H]1N2C [YU-112, N--phenylethyl physostigmine]	0.191 ± 0.056 µM	0.213 ± 0.038 µM					IC50 [6]: 0.155 ± 0.028 µM
COc1ccc(NC(=O)Oc2ccc3c(c2)[C@]2(C)CCN(C)[C@@H]2N3C)cc1 [YU-114, methoxyphenyl carbamoyleseroline]			1.68 ± 0.38 µM	0.224 ± 0.047 µM	0.0276 ± 0.0018 µM	approximately equally potent against both enzymes	reduction of antiacetylcholinesterase potency (acetylcholinesterase): approximately 10 fold; increase of antibutyrylcholinesterase potency (butyrylcholinesterase): ten-fold
CN1CC[C@@]2(C)c3cc(OC(=O)Nc4ccc(Cl)cc4)ccc3N(C)[C@@H]12 [YU-116, chlorophenyl carbamoyleseroline]	0.448 ± 0.029 µM	0.654 ± 0.032 µM	1.8 ± 0.085 µM	4.46 ± 1.29 µM	4 ± 0.052 µM	relatively specific for acetyl- rather than butyryl-cholinesterase	IC50 [6]: 0.417 ± 0.088 µM; antiacetylcholinesterase potency in words (acetylcholinesterase): much less against acetylcholinesterase; reduction of antiacetylcholinesterase potency (acetylcholinesterase): approximately 10 fold; IC50 (acetylcholinesterase): ~0.5 µM
CCCCNC(=O)Oc1ccc2c(c1)[C@]1(C)CCN(C)[C@@H]1N2C [YU-120, butylcabamoyl eseroline]	0.0203 ± 0.0068 µM	0.0176 ± 0.0091 µM	0.152 ± 0.009 µM	0.016 ± 0.0044 µM	0.00413 ± 0.00125 µM		IC50 [6]: 0.0208 ± 0.0037 µM; effect of shortening the side chain on potency against acetyl- or butyryl-cholinesterase [7]: does not alter the potency of the compound against either acetyl- or butyryl-cholinesterase
CC(C)NP(=O)(NC(C)C)OP(=O)(NC(C)C)NC(C)C [iso-OMPA, reference compound]			> 1000 µM				
c1ccc(C2(N3CCCCC3)CCCCC2)cc1 [phencyclidine]							modification of AChR activation (nicotinic AChR): modify noncompetitively the activation of the AChR
Ethoprop [reference compound]							IC50 [3, 11]: 120 µM; IC50 [4, 12]: 0.21 µM; IC50 [5, 13]: 0.3 µM
